Data published in patent publication US8859508B2, “Application of 5-methyl-1,3-benzenediol or derivatives thereof in the preparation of medicines and functional foods for treatment or prevention of depression” (Kunming Institute of Botany, Chinese Academy of Sciences, priority 2007, dated 2014).

Legend:
[1] = tested on: Kunming mice; assay: Morris water maze (MWM) in mice; format: in vivo, mouse
Protocol: Kunming mice (Certificate Number: A4CXK(Chuan)2003-16) from the Institute of Experimental Animals, People's Hospital of Sichuan Province, were used. They were 3-4 weeks old at the beginning of the experiment and weighed 25-30 g. ORG was prepared as described in Example 1. Animals were divided into drug administration groups with fluoxetine or different doses of ORG and a vehicle control group. The drug administration groups received 1.75 mg/kg or 3.5 mg/kg of ORG or 15 mg/kg of fluoxetine. Animals received a single i.p. injection of drug or vehicle 30 min either after training every day or 30 min before the retention test on day 8.
Morris water maze: The MWM was performed in a circular pool (100 cm in diameter and 36 cm in depth) with a hidden platform (10 cm×10 cm) that was approximately 1 cm below the water surface. The pool was surrounded by yellow curtains with different shaped markers hanging in each quadrant. The time spent to find the hidden platform and the trajectory of the mouse were recorded by computer. From days 1 to 7, mice were placed in the pool to find the fixed hidden platform. On day 8, the platform was removed and the time that the mouse spent in the target quadrant was counted in 1 min of free swimming.
(§1) Data analysis: The results of the test are expressed as mean±SEM. One-way ANOVA was used followed by the LSD test with SPSS 11 software. The significance level was set at P<0.05.

[2] = tested on: DD model mice; assay: TST in constant darkness (DD) model mice; format: in vivo, mouse; settings: for Immobility time (s) (mean ± SEM): oral once a day for 1 week
Protocol: (§2) Kunming mice (Certificate Number: A4CXK(Chuan)2003-16) from the Institute of Experimental Animals, People's Hospital of Sichuan Province, were used. They were 3-4 weeks old at the beginning of the experiments and weighed 25-30 g. ORG was prepared as described in Example 1. Animals were divided into experimental groups with different doses, vehicle control groups, and an imipramine group (Sigma, Batch No. 106k1588) as positive control.
DD model in mice: Mice were kept under 24 h continuous dark conditions. The replacement of padding, addition of food and water, and other operations were undertaken in the condition that the intensity of red light was less than 1.0 lux. The period of this condition lasted for 28 days. In the last week, ORG was administered orally once a day for 1 week. The FST and TST were carried out 30 min after the last administration. Methods and data analysis were as described above.

[3] = tested on: rats; assay: Footshock-induced freezing behavior test in rats; format: in vivo, rat; settings: i.p. 24 h and 5 h before test
Protocol: as §2, with “experiment” for “experiments”, “drug administration” for “experimental”, “doses of ORG, a” for “doses,”, “group,” for “groups,”, “a diazepam” for “an imipramine”, “(Jinyao Ltd. Co.,” for “(Sigma,”
(§3) Footshock-induced freezing behavior: Animals received an i.p. injection of ORG or vehicle 24 h and 5 h before being placed in a standard conditioning chamber (Med Associates, USA) for a 10 min training session. Two, 4, 6, 8, and 10 min after the onset of the session, a footshock (0.8 mA, 2 s) was delivered through the grid floor of the chamber. The freezing time during the last 5 min were recorded. Rats were placed in the chamber again without footshock 24 h after the first training, and the freezing time was recorded.
as §1

[4] = tested on: rats; assay: Conditioned fear stress-induced freezing behavior test in rats; format: in vivo, rat; settings: i.p. 24 h and 5 h before footshocks, re-exposure 24 h later
Protocol: as §2, with “experiment” for “experiments”, “drug administration” for “experimental”, “doses of ORG, a” for “doses,”, “group,” for “groups,”, “a diazepam” for “an imipramine”, “(Jinyao Ltd. Co.,” for “(Sigma,”
as §3, §1

[5] = tested on: CMS model mice; assay: TST in chronic unpredictable mild stress (CMS) model mice; format: in vivo, mouse; settings: for Immobility time (s) (mean ± SEM): oral once a day for 7 days
Protocol: as §2, with “of” for “of the”, “experiment” for “experimental”, “doses, a” for “doses,”, “group,” for “groups,”
CMS model: The chronic mild stresses that Kunming mice were subjected to were reversal of circadian rhythm, continuous light, cold, damp bedding, tilt cages, food and water restriction, and restraint. […] The stress period lasted for 8 weeks. In the last week, ORG was administered orally once a day for 7 consecutive days. The behavioral test was carried out 30 min after the last administration. The parameter tested was immobility time in the FST and TST in the CMS model mice. The methods of FST and TST and data analysis were as described above.

[6] = tested on: LTP in the CA1 area of hippocampus; assay: Long-term potentiation (LTP) recording in hippocampal slices of footshock-stressed rats; format: cell-based, rat
Protocol: Rats weighing 250-300 g, from the Institute of Experimental Animals, People's Hospital of Sichuan Province, were used. ORG was prepared as described in Example 1. Fluoxetine was from Wuhan Yuancheng Technology Co. (Wuhan, China; Batch No: 1004-0801002).
Method of long-term potentiation (LTP) recording in hippocampus: Excitatory postsynaptic potentials (EPSPs) in the hippocampus were recorded to determine the anti-stress effect of ORG. Stress impairs LTP in the CAl area of hippocampus, and this can be rescued by anti-stress drugs. Rats were stressed by footshock as follows: 1 mA, 2 s, 5 times at intervals of 2 min. Hippocampal slices were prepared, incubated for 1 h at 34-36° C., and then kept at room temperature. ORG was applied in the bath solution. EPSPs mediated by NMDA and AMPA receptors in the CA1 region were recorded until the baseline was stable for 20 min. Then high frequency stimulation (HFS, 100 Hz, 100 pulses, 20 s interval) was used to induce LTP. The EPSPs were recorded for 1 h after HFS.
Data Analysis: Data are expressed as mean±SEM and LTP is expressed as the percentage of the average amplitude of the last 10 min relative to the baseline. One-way ANOVA was used followed by the LSD test with SPSS 11 software. The significance level was set at P<0.05.

Cc1cc(O)cc(OC2OC(CO)C(O)C(O)C2O)c1 [ORG, orcinol-1-O-β-D-glucopyranoside]
Time spent in the right quadrant (s) (mean ± SEM) ([1]; i.p. 30 min before retrieval on day 8, 1.75 mg/kg): 29.38 ± 2.16 s
Time spent in the right quadrant (s) (mean ± SEM) ([1]; i.p. 30 min before retrieval on day 8, 3.5 mg/kg): 35.52 ± 2.43 s
Time spent in the right quadrant (s) (mean ± SEM) ([1]; i.p. daily 30 min after training, retention test day 8, 1.75 mg/kg): 28.18 ± 1.70 s
Time spent in the right quadrant (s) (mean ± SEM) ([1]; i.p. daily 30 min after training, retention test day 8, 3.5 mg/kg): 34.24 ± 2.01 s
therapeutic index = TD50÷ED50 ([2]; DD mice): > 1000
Immobility time (s) (mean ± SEM) ([2]; DD mice, 5 mg/kg): 146.30 ± 11.66 s
Immobility time (s) (mean ± SEM) ([2]; DD mice, 10 mg/kg): 145.31 ± 12.41 s
Immobility time (s) (mean ± SEM) ([2]; DD mice, 20 mg/kg): 140.69 ± 14.138 s
Immobility time (s) (mean ± SEM) ([2]; DD mice, test 30 min after last dose, 1.25 mg/kg): 171.20 ± 13.02 s
dose of the best efficacy ([2]; DD model mice, ORG oral): 20 mg/kg
ED50 ([2]; Mus musculus, DD model mice, ORG oral): ~1.75 mg/kg
Duration of freezing (s) (mean ± S.E.) ([3]; 5 mg/kg): 203.90 ± 34.09 s
Duration of freezing (s) (mean ± S.E.) ([3]; 20 mg/kg): 100.70 ± 21.78 s
Duration of freezing (s) (mean ± SEM) ([4]; 5 mg/kg): 310.30 ± 66.19 s
Duration of freezing (s) (mean ± SEM) ([4]; 20 mg/kg): 95.00 ± 17.73 s
therapeutic index (TI) = TD50÷ED50 ([5]; CMS mice): > 415
Immobility time (s) (mean ± SEM) ([5]; CMS mice, 5 mg/kg): 146.30 ± 11.66 s
Immobility time (s) (mean ± SEM) ([5]; CMS mice, 10 mg/kg): 145.31 ± 12.41 s
Immobility time (s) (mean ± SEM) ([5]; CMS mice, 20 mg/kg): 140.69 ± 14.14 s
Immobility time (s) (mean ± SEM) ([5]; CMS mice, test 30 min after last dose, 1.25 mg/kg): 171.20 ± 13.02 s
best dose for the antidepressant effect ([5]; CMS model mice, ORG oral): 20 mg/kg
ED50 ([5]; Mus musculus, CMS model mice, ORG oral): ~4.22 mg/kg
LTP, Average of last 10 min (mean ± SEM) ([6]; control (non-stressed) slices incubated with 5 μM, percentage of average EPSP amplitude of last 10 min relative to baseline): 122.93 ± 3.75
LTP, Average of last 10 min (mean ± SEM) ([6]; footshock (FS) stressed rat slices incubated with 50 nM, percentage relative to baseline): 128.99 ± 7.30
LTP, Average of last 10 min (mean ± SEM) ([6]; footshock (FS) stressed rat slices incubated with 5 μM, percentage relative to baseline): 189.56 ± 23.6
